The values below come from patent publication US20030157154A1, “Compositions containing hydroxy aromatic aldehydes and their use in treatments” (priority 2002, published 2003).

Structures are written as SMILES.

In assay [1] the test system is PGE-2. The assay can be described thus: IL-1 induced PGE-2 in human skin fibroblasts (ELISA of culture medium). The format is cell-based. Conditions: Skin fibroblast, IL-1 500 picograms/ml, 24 hours, read-out: percent inhibition of IL-1 induced PGE-2; for inhibition at 1 µM: compound 1 μM; for inhibition at 10 µM: compound 10 μM; for inhibition at 50 µM: compound 50 μM. The protocol: (§1) For this experiment, human skin fibroblasts were seeded into 12 well culture dishes at a density of 80,000 cells/well in tissue culture medium and left overnight to attach to the dish. The next day, medium was removed and replaced with fresh medium containing either 1% ethanol as a diluent control, IL-1 at a concentration of 500 picograms/ml, or IL-1 plus one of the compounds under investigation at a concentration of 1, 10, 50 or 100 μM. Cells were incubated for an additional 24 hours and at this time, the medium was removed and assayed by ELISA for the presence of PGE-2 in the culture medium.
In general terms: An ELISA detects its analyte on a solid surface through an enzyme-linked reagent.

Assay [2] concerns PGE-2. Nature of the assay: TPA-induced PGE-2 in human skin keratinocytes (ELISA of culture medium). Particulars: TPA 32 nM. The format is cell-based. The protocol: as §1
Similar in vitro studies as those described in Example 1 were run using human skin keratinocytes except that the aromatic aldehyde was not added t. The experimental set up was the same as described for Example 1, but replacing IL-1 with tetradecanoyl phorbol acetate (TPA) at a concentration of 32 nM as the agonist. Samples of 3,5-Di-tert-butyl, 4- hydroxybenzaldehyde (DTHB) in concentrations of either 10, 50, or 100 μM were tested. […] However, treatment with DTHB blocked PGE-2 production by at least 50.

A word on the inhibition: it is the share of the control response that was lost under treatment. For the molecule `CCOc1ccc(C=O)cc1` [4-EB, 4-ethoxybenzaldehyde, reference compound], in the assay on PGE-2 [1], the inhibition at 1 µM turned out to be 10%, the inhibition at 10 µM was determined as 6% and the inhibition at 50 µM was 100%.

Take `CC(C)(C)c1cc(C=O)cc(C(C)(C)C)c1O` [DTHB, 3,5 di-tert-butyl-4-hydroxybenzaldehyde]: in the assay on PGE-2 [2] (Keratinocyte, compound 10 μM, read-out: percent inhibition of TPA-induced PGE-2), the inhibition at 10 µM was determined as 87.9%. Moreover, the “blocked PGE-2 production” value in the assay with PGE-2 [2] (DTHB 10, 50, or 100 μM) is “at least 50”. Besides, in the assay with PGE-2 [1], the inhibition at 1 µM worked out at 3.3%, the inhibition at 10 µM amounted to 44.4% and the inhibition at 50 µM amounted to 100%.
